Assay results from patent US11230555B2, “Bicyclic RORγ modulators” (Escalier Biosciences B.V., priority 2018, dated 2022).

The compounds below were run against T1, RORγt (Homo sapiens, UniProt P51449) (assay: Gal4 ligand binding assay (RORγt Gal fusion reporter assay)). Conditions: inverse agonists, luciferase reporter, 24h.
T1 construct: purchased reporter-cell kit
T1 sequence (P51449 269-508 limits assumed): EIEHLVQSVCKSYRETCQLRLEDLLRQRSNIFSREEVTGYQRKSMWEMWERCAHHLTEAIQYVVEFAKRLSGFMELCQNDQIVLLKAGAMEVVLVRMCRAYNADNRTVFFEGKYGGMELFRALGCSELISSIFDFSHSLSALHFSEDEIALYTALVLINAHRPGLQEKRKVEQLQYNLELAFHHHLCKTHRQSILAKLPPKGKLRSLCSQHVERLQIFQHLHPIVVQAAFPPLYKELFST
Format: cell-based
Procedure: Compounds of the present invention were tested in a human RORγ ligand binding assay using a commercially available cell based ligand binding reporter assay in 96-well format (Cat #IB04001, INDIGO Biosciences, State College, Pa.). The N-terminal DNA binding domains (DBD) of the native RORγ and RORγt receptors have been substituted with that of the yeast GAL4-DBD and stably transfected in […] cells that also stably express luciferase under the regulation by upstream activation sequence of yeast Gal4. These cells constitutively express high level RORγ activity due to binding of endogenous co-factors. Both agonist and inverse agonist activity can be detected. The assay was performed according to kit manufacturer's instructions as follows. 10 mM compound stocks were diluted serially 1:3 with DMSO and further diluted with provided media to generate 10 titration points from 60 μM to 3 nM. These treatment conditions were added to the plates as 2× media in 100 μL volume. Each plate includes a positive control with 10 titration points as well as 6negative control wells with vehicle only, with final DMSO concentration of 0.2%. RORγ reporter cells were rapidly thawed and added to the plates in 100 μL volume. The plates were incubated for 24h in a 37° C. humidified 5% CO2incubator. Media was removed before the addition of room temperature luciferous detection substrate. After 5 minute incubation, relative light units (RLUs) were quantified using a plate reading luminometer. Data was normalized to positive control wells with only […]. Before establishing internal controls, ursolic acid was used as control.
Work on `CC(C)c1cc(CN2CC3CCC(C2)N3S(C)(=O)=O)ccc1-c1ccc(C(O)(C(F)(F)F)C(F)(F)F)cc1F` [Example 21] yielded an IC50 of 0.05 to 0.25 µM. `CCCS(=O)(=O)N1C2CCC1CN(Cc1ccc(-c3ccc(C(O)(C(F)(F)F)C(F)(F)F)cc3)c(C)c1)C2` [Example 68, 1,1,1,3,3,3-hexafluoro-2-(2′-methyl-4′-((8-(propylsulfonyl)-3,8-diazabicyclo[3.2.1]octan-3-yl)methyl)-[1,1′-biphenyl]-4-yl)propan-2-ol] was tested, and the IC50 was > 0.25 µM. With `CCc1cc(CN2C3CCC2CN(S(C)(=O)=O)C3)ccc1-c1ccc(C(O)(C(F)(F)F)C(F)(F)F)cc1` [Example 6, 2-(2′-ethyl-4′-((3-(methylsulfonyl)-3,8-diazabicyclo[3.2.1]octan-8-yl)methyl)-[1,1′-biphenyl]-4-yl)-1,1,1,3,3,3-hexafluoropropan-2-ol] the IC50 was 0.05 to 0.25 µM. In the case of `CCc1c(F)c(CN2CC3CCC(C2)N3S(C)(=O)=O)cc(F)c1-c1ccc(C(O)(C(F)(F)F)C(F)(F)F)cc1F` [Example 23, 2-(2′-ethyl-2,3′,6′-trifluoro-4′-((8-(methylsulfonyl)-3,8-diazabicyclo[3.2.1]octan-3-yl)methyl)-[1,1′-biphenyl]-4-yl)-1,1,1,3,3,3-hexafluoropropan-2-ol], the IC50 is reported as < 0.05 µM. With `CCS(=O)(=O)N1C2CCC1CN(Cc1ccc(-c3ccc(C(O)(C(F)(F)F)C(F)(F)F)cc3)c(C)c1)C2` [Example 69, 2-(4′-((8-(ethylsulfonyl)-3,8-diazabicyclo[3.2.1]octan-3-yl)methyl)-2'-methyl-[1,1′-biphenyl]-4-yl)-1,1,1,3,3,3-hexafluoropropan-2-ol] the IC50 was > 0.25 µM. With `Cc1cc(CN2CC3CCC(C2)N3S(=O)(=O)C2CC2)ccc1-c1ccc(C(O)(C(F)(F)F)C(F)(F)F)cc1` [Example 64, 2-(4′-((8-(cyclopropylsulfonyl)-3,8-diazabicyclo[3.2.1]octan-3-yl)methyl)-2′-methyl-[1,1′-biphenyl]-4-yl)-1,1,1,3,3,3-hexafluoropropan-2-ol] the IC50 was 0.05 to 0.25 µM. Work on `CC(C)c1cc(CN2CC3CCC(C2)N3S(C)(=O)=O)ccc1-c1ccc(C(O)(C(F)(F)F)C(F)(F)F)cc1Cl` [Example 22, 2-(2-chloro-2′-isopropyl-4′-((8-(methylsulfonyl)-3,8-diazabicyclo[3.2.1]octan-3-yl)methyl)-[1,1′-biphenyl]-4-yl)-1,1,1,3,3,3-hexafluoropropan-2-ol] yielded an IC50 of 0.05 to 0.25 µM. Compound `OC(c1ccc(-c2ccc(CN3CC4CCC(C3)N4Cc3ccncc3)cc2)cc1)(C(F)(F)F)C(F)(F)F` [Example 1, 1,1,1,3,3,3-hexafluoro-2-(4′-((8-(pyridin-4-ylmethyl)-3,8-diazabicyclo[3.2.1]octan-3-yl)methyl)-[1,1′-biphenyl]-4-yl)propan-2-ol] has an IC50 of 0.05 to 0.25 µM. With `CCc1c(F)c(CN2CC3CCC(C2)N3S(C)(=O)=O)cc(F)c1-c1ccc(C(O)(C(F)(F)F)C(F)(F)F)cc1C` [Example 30, 2-(2′-ethyl-3′,6′-difluoro-2-methyl-4′-((8-(methylsulfonyl)-3,8-diazabicyclo[3.2.1]octan-3-yl)methyl)-[1,1′-biphenyl]-4-yl)-1,1,1,3,3,3-hexafluoropropan-2-ol] the IC50 was < 0.05 µM. `CS(=O)(=O)N1C2CCC1CN(c1cccc(-c3ccc(C(O)(C(F)(F)F)C(F)(F)F)cc3)c1)C2` [Example 9, 1,1,1,3,3,3-hexafluoro-2-(3′-(8-(methylsulfonyl)-3,8-diazabicyclo[3.2.1]octan-3-yl)-[1,1′-biphenyl]-4-yl)propan-2-ol] was tested, and the IC50 was > 0.25 µM. For `CCc1nc(CN2CC3CCC(C2)N3S(C)(=O)=O)ccc1-c1ccc(C(O)(C(F)(F)F)C(F)(F)F)cc1C` [Example 5, 2-(4-(2-ethyl-6-((8-(methylsulfonyl)-3,8-diazabicyclo[3.2.1]octan-3-yl)methyl)pyridin-3-yl)-3-methylphenyl)-1,1,1,3,3,3-hexafluoropropan-2-ol], the IC50 was > 0.25 µM. `CCc1cc(CN2CC3CCC(C2)N3S(C)(=O)=O)ccc1-c1ccc(C(O)(C(F)(F)F)C(F)(F)F)cc1` [Example 52, 2-(2′-ethyl-4′-((8-(methylsulfonyl)-3,8-diazabicyclo[3.2.1]octan-3-yl)methyl)-[1,1′-biphenyl]-4-yl)-1,1,1,3,3,3-hexafluoropropan-2-ol] was tested, and the IC50 was < 0.05 µM. `CCc1c(-c2ccc(C(O)(C(F)(F)F)C(F)(F)F)cc2)cc(F)c(CN2CC3CCC(C2)N3S(C)(=O)=O)c1F` [Example 14] was tested, and the IC50 was < 0.05 µM. For `CCc1cc(CN2CC3CCC(C2)N3S(C)(=O)=O)ccc1-c1ccc(C(O)(C(F)(F)F)C(F)(F)F)cc1Cl` [Example 27, 2-(2-chloro-2′-ethyl-4′-((8-(methylsulfonyl)-3,8-diazabicyclo[3.2.1]octan-3-yl)methyl)-[1,1′-biphenyl]-4-yl)-1,1,1,3,3,3-hexafluoropropan-2-ol], the IC50 was < 0.05 µM. With `CCc1cc(CN2CC3CCC(C2)N3S(C)(=O)=O)c(F)cc1-c1ccc(C(O)(C(F)(F)F)C(F)(F)F)cc1Cl` [Example 19, 2-(2-chloro-2′-ethyl-5′-fluoro-4′-((8-(methylsulfonyl)-3,8-diazabicyclo[3.2.1]octan-3-yl)methyl)-[1,1′-biphenyl]-4-yl)-1,1,1,3,3,3-hexafluoropropan-2-ol] the IC50 was < 0.05 µM. With `Cc1cc(CN2CC3CC2CN3S(C)(=O)=O)ccc1-c1ccc(C(O)(C(F)(F)F)C(F)(F)F)cc1` (stereo not shown) [Example 49, 1,1,1,3,3,3-hexafluoro-2-(2′-methyl-4′-((5-(methylsulfonyl)-2,5-diazabicyclo[2.2.1]heptan-2-yl)methyl)-[1,1′-biphenyl]-4-yl)propan-2-ol] the IC50 was > 0.25 µM. In the case of `Cc1cc(CN2CC3CCC(C2)N3Cc2ccc(F)cc2)ccc1-c1ccc(C(O)(C(F)(F)F)C(F)(F)F)cc1` [Example 77, 1,1,1,3,3,3-hexafluoro-2-(4′-((8-(4-fluorobenzyl)-3,8-diazabicyclo[3.2.1]octan-3-yl)methyl)-2′-methyl-[1,1'-biphenyl]-4-yl)propan-2-ol], the IC50 is reported as > 0.25 µM. With `COCCC(=O)N1C2CCC1CN(Cc1ccc(-c3ccc(C(O)(C(F)(F)F)C(F)(F)F)cc3)c(C)c1)C2` [Example 45, 1-(3-((4′-(1,1,1,3,3,3-hexafluoro-2-hydroxypropan-2-yl)-2-methyl-[1,1′-biphenyl]-4-yl)methyl)-3,8-diazabicyclo[3.2.1]octan-8-yl)-3-methoxypropan-1-one] the IC50 was > 0.25 µM. In the case of `Cc1cc(CN2CC3CCC(C2)N3S(=O)(=O)c2ccc(F)cc2)ccc1-c1ccc(C(O)(C(F)(F)F)C(F)(F)F)cc1` [Example 62, 1,1,1,3,3,3-hexafluoro-2-(4′-((8-((4-fluorophenyl)sulfonyl)-3,8-diazabicyclo[3.2.1]octan-3-yl)methyl)-2′-methyl-[1,1′-biphenyl]-4-yl)propan-2-ol], the IC50 is reported as > 0.25 µM. With `CCc1cc(CN2CC3CCC2CN3S(C)(=O)=O)ccc1-c1ccc(C(O)(C(F)(F)F)C(F)(F)F)cc1` (stereo not shown) [Example 37, 2-(2′-ethyl-4′-((5-(methylsulfonyl)-2,5-diazabicyclo[2.2.2]octan-2-yl)methyl)-[1,1′-biphenyl]-4-yl)-1,1,1,3,3,3-hexafluoropropan-2-ol] the IC50 was 0.05 to 0.25 µM. For `CC(C)c1cc(CN2CC3CCC(C2)N3S(C)(=O)=O)c(F)cc1-c1ccc(C(O)(C(F)(F)F)C(F)(F)F)cc1Cl` [Example 15, 2-(2-chloro-5′-fluoro-2′-isopropyl-4′-((8-(methylsulfonyl)-3,8-diazabicyclo[3.2.1]octan-3-yl)methyl)-[1,1′-biphenyl]-4-yl)-1,1,1,3,3,3-hexafluoropropan-2-ol], the IC50 was < 0.05 µM. `CCc1cc(CN2CC3CCC(C2)N3S(C)(=O)=O)cc(F)c1-c1ccc(C(O)(C(F)(F)F)C(F)(F)F)cc1F` [Example 17, 2-(2′-ethyl-2,6′-difluoro-4′-((8-(methylsulfonyl)-3,8-diazabicyclo[3.2.1]octan-3-yl)methyl)-[1,1′-biphenyl]-4-yl)-1,1,1,3,3,3-hexafluoropropan-2-ol] was tested, and the IC50 was < 0.05 µM. With `OC(c1ccc(-c2ccc(CN3C4CCC3CN(Cc3ccncc3)C4)cc2)cc1)(C(F)(F)F)C(F)(F)F` [Example 2, 1,1,1,3,3,3-hexafluoro-2-(4′-((3-(pyridin-4-ylmethyl)-3,8-diazabicyclo[3.2.1]octan-8-yl)methyl)-[1,1′-biphenyl]-4-yl)propan-2-ol] the IC50 was > 0.25 µM. With `OC(c1ccc(-c2ccc(CN3CC4CCC(C3)N4Cc3ccncc3)cc2Br)cc1)(C(F)(F)F)C(F)(F)F` [Example 41, 2-(2′-bromo-4′-((8-(pyridin-4-ylmethyl)-3,8-diazabicyclo[3.2.1]octan-3-yl)methyl)-[1,1′-biphenyl]-4-yl)-1,1,1,3,3,3-hexafluoropropan-2-ol] the IC50 was < 0.05 µM. With `Cc1cc(CN2CC3CCC(C2)N3Cc2ccncn2)ccc1-c1ccc(C(O)(C(F)(F)F)C(F)(F)F)cc1` [Example 47, 1,1,1,3,3,3-hexafluoro-2-(2′-methyl-4′-((8-(pyrimidin-4-ylmethyl)-3,8-diazabicyclo[3.2.1]octan-3-yl)methyl)-[1,1′-biphenyl]-4-yl)propan-2-ol] the IC50 was < 0.05 µM.
